Reference: US10035790B2, “RORγ modulators” (BRISTOL-MYERS SQUIBB COMPANY, priority 2012, dated 2018)

Each molecule was assayed against T1, ligand binding domain of human RORγ (A262-S507) (Homo sapiens, UniProt P51449) (assay: General RORγ SPA binding assay (competition with [3H]25-hydroxycholesterol)). Details: RORγ SPA binding assay, inhibition of [3H]25-hydroxycholesterol binding; read-out: IC50.
T1 construct: made in house; host or cells: E. coli
T1 sequence (P51449 262-507): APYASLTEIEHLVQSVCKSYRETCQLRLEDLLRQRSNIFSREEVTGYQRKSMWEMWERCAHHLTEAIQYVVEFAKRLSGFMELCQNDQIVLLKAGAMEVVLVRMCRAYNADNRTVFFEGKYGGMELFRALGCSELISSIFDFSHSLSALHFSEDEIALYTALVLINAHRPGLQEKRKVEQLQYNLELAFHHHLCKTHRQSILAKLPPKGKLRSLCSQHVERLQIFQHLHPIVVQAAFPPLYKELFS
In short: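 Step one: compound meets 50 nM nickel-purified, His-tagged protein from E. coli for 15 min at room temperature (PBS, 0.5% fatty acid free BSA). Step two: radioligand is added for another 15 min. Step three: SPA beads are added for 30 min before scintillation reading and IC50 fitting.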
In the case of `C/C(=N\Oc1ccnc(C(F)(F)F)c1)c1cnc(N)nc1C1CCN(C(=O)Nc2c(F)cccc2F)CC1` [Compound B53, 4-{2-amino-5-[(1E)-N-{[2-(trifluoromethyl)pyridin-4-yl]oxy}ethanimidoyl]pyrimidin-4-yl}-N-(2,6-difluorophenyl)piperidine-1-carboxamide], the IC50 is reported as 35.1 nM.
`C/C(=N\Oc1ccnc(C(F)(F)F)n1)c1cnc(N)nc1C1CCN(C(=O)Nc2c(F)cccc2F)CC1` [Compound B54, 4-{2-Amino-5-[(1E)-N-{[2-(trifluoromethyl)pyrimidin-4-yl]oxy}ethanimidoyl]pyrimidin-4-yl}-N-(2,6-difluorophenyl)piperidine-1-carboxamide] gave an IC50 of 168 nM.
`C/C(=N\Oc1cc(Cl)nc(C(F)(F)F)c1)c1cnc(N)nc1C1CCN(C(=O)Nc2c(F)cccc2F)CC1` [Compound B55, 4-{2-Amino-5-[(1E)-N-{[2-chloro-6-(trifluoromethyl)pyridin-4-yl]oxy}ethanimidoyl]pyrimidin-4-yl}-N-(2,6-difluorophenyl)piperidine-1-carboxamide] was tested, and the IC50 was 5.8 nM.
In the case of `C/C(=N\Oc1cc(F)nc(F)c1)c1cnc(N)nc1C1CCN(C(=O)Nc2c(F)cccc2F)CC1` [Compound B56, 4-(2-Amino-5-{(1E)-N-[(2,6-difluoropyridin-4-yl)oxy]ethanimidoyl}pyrimidin-4-yl)-N-(2,6-difluorophenyl)piperidine-1-carboxamide], the IC50 is reported as 31.8 nM.
`C/C(=N/Oc1cc(F)nc(F)c1)c1cnc(N)nc1C1CCN(C(=O)Nc2c(F)cccc2F)CC1` [Compound B57, 4-(2-Amino-5-{(1Z)—N-[(2,6-difluoropyridin-4-yl)oxy]ethanimidoyl}pyrimidin-4-yl)-N-(2,6-difluorophenyl)piperidine-1-carboxamide] gave an IC50 of 92.7 nM.
In the case of `CSc1ncc(/C(C)=N/Oc2ccnc(Cl)c2)c(C2CCN(C(=O)Nc3c(F)cccc3F)CC2)n1` [Compound B58, 4-[5-{(1E)-N-[(2-Chloropyridin-4-yl)oxy]ethanimidoyl}-2-(methylthio)pyrimidin-4-yl]-N-(2,6-difluorophenyl)piperidine-1-carboxamide], the IC50 is reported as 4090 nM.
`C/C(=N\Oc1ccnc(Cl)c1)c1cnc(N)nc1C1CCN(C(=O)Nc2c(F)cccc2F)CC1` [Compound B59, 4-(2-Amino-5-{(1E)-N-[(2-chloropyridin-4-yl)oxy]ethanimidoyl}pyrimidin-4-yl)-N-(2,6-difluorophenyl)piperidine-1-carboxamide] showed an IC50 of 49.1 nM.
In the case of `CCNc1ncc(/C(C)=N/Oc2ccnc(C(F)(F)F)c2)c(C2CCN(C(=O)Nc3c(F)cccc3F)CC2)n1` [Compound B60, N-(2,6-Difluorophenyl)-4-{2-(ethylamino)-5-[(1E)-N-{[2-(trifluoromethyl)pyridin-4-yl]oxy}ethanimidoyl]pyrimidin-4-yl}piperidine-1-carboxamide], the IC50 is reported as 115 nM.
With `C/C(=N\Oc1ccnc(C(F)(F)F)c1)c1cnc(N(C)C)nc1C1CCN(C(=O)Nc2c(F)cccc2F)CC1` [Compound B61, N-(2,6-Difluorophenyl)-4-{2-(dimethylamino)-5-[(1E)-N-{[2-(trifluoromethyl)pyridin-4-yl]oxy}ethanimidoyl]pyrimidin-4-yl}piperidine-1-carboxamide] the IC50 was 367 nM.
`Cc1nc(C)c(-c2nc(-c3cccc(C(F)(F)F)c3)no2)c(C2CCN(C(=O)Cc3c(F)cccc3F)CC2)n1` [Compound C1, 4-{1-[(2,6-Difluorophenyl)acetyl]piperidin-4-yl}-2,6-dimethyl-5-{3-[3-(trifluoromethyl)phenyl]-1,2,4-oxadiazol-5-yl}pyrimidine] was tested, and the IC50 was 114 nM.
Work on `Cc1nc(C)c(-c2nc(-c3ccc(F)cc3)no2)c(C2CCN(C(=O)Cc3c(F)cccc3F)CC2)n1` [Compound C2, 2-(2,6-difluorophenyl)-1-(4-(5-(3-(4-fluorophenyl)-1,2,4-oxadiazol-5-yl)-2,6-dimethylpyrimidin-4-yl)piperidin-1-yl)ethanone] yielded an IC50 of 337 nM.
`Cc1nc(C)c(-c2nc(Cc3ccc(F)cc3)no2)c(C2CCN(C(=O)Cc3c(F)cccc3F)CC2)n1` [Compound C3, 2-(2,6-difluorophenyl)-1-(4-(5-(3-(4-fluorobenzyl)-1,2,4-oxadiazol-5-yl)-2,6-dimethylpyrimidin-4-yl)piperidin-1-yl)ethanone] gave an IC50 of 606 nM.
`Cc1nc(C)c(-c2nc(-c3cccc(Cl)c3)no2)c(C2CCN(C(=O)Cc3c(F)cccc3F)CC2)n1` [Compound C4, 1-(4-(5-(3-(3-chlorophenyl)-1,2,4-oxadiazol-5-yl)-2,6-dimethylpyrimidin-4-yl)piperidin-1-yl)-2-(2,6-difluorophenyl)ethanone] was tested, and the IC50 was 620 nM.
In the case of `Cc1nc(C)c(-c2nnc(-c3ccnc(C(F)(F)F)n3)o2)c(C2CCN(C(=O)Cc3c(F)cccc3F)CC2)n1` [Compound C5, 4-{1-[(2,6-Difluorophenyl)acetyl]piperidin-4-yl}-2,6-dimethyl-5-{5-[2-(trifluoromethyl)pyrimidin-4-yl]-1,3,4-oxadiazol-2-yl}pyrimidine], the IC50 is reported as 6.3 nM.
`Cc1nc(C)c(-c2nnc(-c3cccc(C(F)(F)F)n3)o2)c(C2CCN(C(=O)Cc3c(F)cccc3F)CC2)n1` [Compound C6, 2-(2,6-difluorophenyl)-1-(4-(2,6-dimethyl-5-(5-(6-(trifluoromethyl)pyridin-2-yl)-1,3,4-oxadiazol-2-yl)pyrimidin-4-yl)piperidin-1-yl)ethanone] showed an IC50 of 5.2 nM.
Molecule `Cc1cc(-c2nnc(-c3c(C)nc(C)nc3C3CCN(C(=O)Cc4c(F)cccc4F)CC3)o2)cc(Cl)n1` [Compound C19, 1-(4-(5-(5-(2-chloro-6-methylpyridin-4-yl)-1,3,4-oxadiazol-2-yl)-2,6-dimethylpyrimidin-4-yl)piperidin-1-yl)-2-(2,6-difluorophenyl)ethanone] has an IC50 of 269 nM.
`Cc1nc(C)c(-c2nnc(-c3ccc(Cl)cn3)o2)c(C2CCN(C(=O)Cc3c(F)cccc3F)CC2)n1` [Compound C20, 1-(4-(5-(5-(5-chloropyridin-2-yl)-1,3,4-oxadiazol-2-yl)-2,6-dimethylpyrimidin-4-yl)piperidin-1-yl)-2-(2,6-difluorophenyl)ethanone] showed an IC50 of 657 nM.
Molecule `Cc1nc(C)c(-c2nnc(-c3cc(Cl)ccn3)o2)c(C2CCN(C(=O)Cc3c(F)cccc3F)CC2)n1` [Compound C21, 1-(4-(5-(5-(4-chloropyridin-2-yl)-1,3,4-oxadiazol-2-yl)-2,6-dimethylpyrimidin-4-yl)piperidin-1-yl)-2-(2,6-difluorophenyl)ethanone] has an IC50 of 3010 nM.
In the case of `Cc1nc(C)c(-c2nnc(-c3ccnc(Cl)c3)o2)c(C2CCN(C(=O)Cc3c(F)cccc3F)CC2)n1` [Compound C22, 1-(4-(5-(5-(2-chloropyridin-4-yl)-1,3,4-oxadiazol-2-yl)-2,6-dimethylpyrimidin-4-yl)piperidin-1-yl)-2-(2,6-difluorophenyl)ethanone], the IC50 is reported as 3960 nM.
Molecule `Cc1nc(C)c(-c2nnc(-c3ccc(Cl)nc3)o2)c(C2CCN(C(=O)Cc3c(F)cccc3F)CC2)n1` [Compound C23, 1-(4-(5-(5-(6-chloropyridin-3-yl)-1,3,4-oxadiazol-2-yl)-2,6-dimethylpyrimidin-4-yl)piperidin-1-yl)-2-(2,6-difluorophenyl)ethanone] has an IC50 of 5290 nM.
`Cc1nc(C)c(-c2nnc(-c3ccnc(C(F)(F)F)n3)o2)c(C2CCN(C(=O)c3c(F)cccc3F)CC2)n1` [Compound C24, 4-{1-[(2,6-Difluorophenyl)carbonyl]piperidin-4-yl}-2,6-dimethyl-5-{5-[2-(trifluoromethyl)pyrimidin-4-yl]-1,3,4-oxadiazol-2-yl}pyrimidine] gave an IC50 of 277 nM.
